# Data from PMC7598997, “Synthesis and evaluation of anticancer activities of 2- or 4-substituted 3-(N-benzyltriazolylmethyl)-13α-oestrone derivatives” (Journal of Enzyme Inhibition and Medicinal Chemistry, 2020).
# Like-named read-outs stand apart in the source and are kept apart here.
# What was measured:
# [1] = test system: A2780 cells; test: MTT antiproliferative assay, A2780; assay type: cell-based, human; settings: for inhibition at 10 µM / inhibition at 30 µM: read-out: Inhibition (%) ± SEM; for IC50: read-out: calculated IC50
# Experimental: (§1) The antiproliferative properties of the newly synthesised triazoles (11a,b–15a,b) were determined on a panel of human adherent cancer cell lines of gynaecological origin. MCF-7 and MDA-MB-231 were isolated from breast cancers differing in biochemical background, while A2780 cells were isolated from ovarian cancer. The cancer selectivity of compound 12a was tested on the non-cancerous mouse embryo fibroblast cell line NIH/3T3. All cell lines were purchased from European Collection of Cell Cultures (ECCAC, Salisbury, UK). Cells were cultivated in minimal essential medium supplemented with 10% foetal bovine serum, 1% non-essential amino acids and an antibiotic–antimycotic mixture. All media and supplements were obtained from Lonza Group Ltd., Basel, Switzerland. Near-confluent cancer cells were seeded onto a 96-well microplate (5000 cells/well) and, after overnight standing, 200 µL new medium, containing the tested compounds at 10 and 30 µM, was added. After incubation for 72 h at 37 °C in humidified air containing 5% CO2, the living cells were assayed by the addition of 20 µL of 5 mg/ml 3-(4,5-dimethylthiazol-2-yl)-2,5-diphenyltetrazolium bromide (MTT) solution. MTT was converted by intact mitochondrial reductase and precipitated as purple crystals during a 4-h contact period. The medium was next removed and the precipitated formazan crystals were dissolved in 100 µL of DMSO during a 60-min period of shaking at 37 ^оC.
# (§2) Finally, the reduced MTT was assayed at 545 nm, using a microplate reader utilising wells with untreated cells serving as control. […] All in vitro experiments were carried out on two microplates with at least five parallel wells. Stock solutions of the tested substances (10 mM) were prepared in DMSO. […] Cisplatin (Ebewe Pharma GmbH, Unterach, Austria) was used as positive control.
# [2] = test system: MDA-MB-231 cells; test: MTT antiproliferative assay, MDA-MB-231; assay type: cell-based, human; settings: for inhibition at 10 µM / inhibition at 30 µM: read-out: Inhibition (%) ± SEM; for IC50: read-out: calculated IC50
# Experimental: as §1, §2
# [3] = test system: MCF-7 cells; test: MTT antiproliferative assay, MCF-7; assay type: cell-based, human; settings: for inhibition at 10 µM / inhibition at 30 µM: read-out: Inhibition (%) ± SEM; for IC50: read-out: calculated IC50
# Experimental: as §1, §2
# [4] = test system: tubulin; test: cell-free in vitro tubulin polymerisation assay; assay type: biochemical; settings: 10 µM paclitaxel, positive control, vs untreated control
# Experimental: The effect of brominated triazole (12a) on tubulin polymerisation was tested with the HTS-Tubulin Polymerisation Assay Biochem Kit (Bio-Kasztel Ltd., Budapest, Hungary) according to the manufacturer’s recommendations. Briefly, 10 µl of a 0.125 or 0.25 mM solution of the test compound (12a) was placed on a prewarmed (37 °C), UV-transparent microplate. About 10 µl 10 µM paclitaxel and 10 µl General Tubulin Buffer were used as positive and negative control, respectively. 100 µl 3.0 mg/ml tubulin in 80 mM PIPES pH 6.9, 2 mM MgCl2, 0.5 mM EGTA, 1 mM GTP was added to each sample, and the microplate was immediately placed into a prewarmed (37 °C) UV-spectrophotometer (SpectoStarNano, BMG Labtech, Ortenberg, Germany) to start the recording reaction. A 60-min kinetic measurement protocol was applied to determine the absorbance of the reaction solution per minute at 340 nm. For the evaluation of the experimental data, the maximum reaction rate (Vmax: Δabsorbance/min) was calculated. Moving averages of absorbances determined at three consecutive timepoints were calculated and the highest difference between two succeeding moving averages was taken as the Vmax of the tested compound in the tubulin polymerisation reaction. Each sample was prepared in two parallels and the measurements were repeated twice. For statistical evaluation, Vmax data were analysed by the one-way ANOVA test with the Newmann–Keuls post-test by using Prism 4.01 software (GraphPad Software, San Diego, CA).
# [5] = Homo sapiens, A2780, 10 µM, 72 h, MTT
# [6] = Homo sapiens, A2780, 30 µM, 72 h, MTT
# [7] = Homo sapiens, MDA-MB-231, 10 µM, 72 h, MTT
# [8] = Homo sapiens, MDA-MB-231, 30 µM, 72 h, MTT
# [9] = Homo sapiens, MCF7, MCF-7, 10 µM, 72 h, MTT
# [10] = Homo sapiens, MCF7, MCF-7, 30 µM, 72 h, MTT
Structure (SMILES),"inhibition at 10 µM ([1]; Homo sapiens, A2780, 72 h)","inhibition at 30 µM ([1]; Homo sapiens, A2780, 72 h)","IC50 ([1]; Homo sapiens, A2780, 72 h)","inhibition at 10 µM ([2]; Homo sapiens, MDA-MB-231, 72 h)","inhibition at 30 µM ([2]; Homo sapiens, MDA-MB-231, 72 h)","IC50 ([2]; Homo sapiens, MDA-MB-231, 72 h)","inhibition at 10 µM ([3]; Homo sapiens, MCF7, 72 h)","inhibition at 30 µM ([3]; Homo sapiens, MCF7, 72 h)","IC50 ([3]; Homo sapiens, MCF7, 72 h)",melting point,other results
"CC(C)(C)c1ccc(Cn2cc(COc3ccc4c(c3Br)CC[C@@H]3[C@@H]4CC[C@@]4(C)C(=O)CC[C@@H]34)nn2)cc1 [Compound 12b, 4-bromo-3-[{1–(4-tert-butylbenzyl)-1H-1,2,3-triazol-4-yl}methoxy]-13α-estra-1,3,5(10)-trien-17-one]",,,,,,,,,,,"inhibition at 10 µM [1, 5]: 46.9 ± 1.75%; inhibition at 30 µM [1, 6]: 54.7 ± 0.7%; IC50 ([1]; Homo sapiens, A2780, 72 h, MTT): 18.3 µM; inhibition at 10 µM [2, 7]: < 20%; inhibition at 30 µM [2, 8]: < 20%; inhibition at 10 µM [3, 9]: 23.5 ± 1.03%; inhibition at 30 µM [3, 10]: 29.2 ± 2.94%"
"CCOP(=O)(OCC)c1c(OCc2cn(Cc3ccccc3)nn2)ccc2c1CC[C@@H]1[C@@H]2CC[C@@]2(C)C(=O)CC[C@@H]12 [Compound 15a, (3-[{1-benzyl-1H-1,2,3-triazol-4-yl}methoxy]-13α-estra-1,3,5(10)-trien-17-on-4-yl)-diethylphosphonate]",79.9 ± 1.08%,99.5 ± 0.03%,5.91 µM,25.7 ± 1.76%,96.87 ± 0.28%,13.2 µM,42.4 ± 2.94%,91 ± 1.49%,11.4 µM,43 to 45 °C,
"CC(C)(C)c1ccc(Cn2cc(COc3cc4c(cc3P(=O)(c3ccccc3)c3ccccc3)[C@H]3CC[C@@]5(C)C(=O)CC[C@H]5[C@@H]3CC4)nn2)cc1 [Compound 14b, (3-[{1–(4-tert-butylbenzyl)-1H-1,2,3-triazol-4-yl}methoxy]-13α-estra-1,3,5(10)-trien-17-on-2-yl)diphenylphosphine oxide]",85.52 ± 0.64%,95.82 ± 0.12%,5.07 µM,46.6 ± 1.21%,71.3 ± 1.23%,13.6 µM,77.87 ± 0.66%,90.69 ± 0.18%,7.16 µM,205 to 208 °C,
"CCOP(=O)(OCC)c1c(OCc2cn(Cc3ccc(C(C)(C)C)cc3)nn2)ccc2c1CC[C@@H]1[C@@H]2CC[C@@]2(C)C(=O)CC[C@@H]12 [Compound 15b, (3-[{1–(4-tert-butylbenzyl)-1H-1,2,3-triazol-4-yl}methoxy]-13α-estra-1,3,5(10)-trien-17-on-4-yl)-diethylphosphonate]",46.2 ± 1.27%,92.05 ± 0.86%,9.96 µM,< 20%,34.8 ± 2.2%,,30.1 ± 1.53%,77.5 ± 1.56%,,54 to 59 °C,
"CCOP(=O)(OCC)c1cc2c(cc1OCc1cn(Cc3ccc(C(C)(C)C)cc3)nn1)CC[C@@H]1[C@@H]2CC[C@@]2(C)C(=O)CC[C@@H]12 [Compound 13b, (3-[{1–(4-tert-butylbenzyl)-1H-1,2,3-triazol-4-yl}methoxy]-13α-estra-1,3,5(10)-trien-17-on-2-yl)-diethylphosphonate]",95.61 ± 0.59%,99.73 ± 0.21%,2.95 µM,57 ± 2.58%,98.93 ± 0.2%,9.51 µM,74 ± 1.88%,95.52 ± 0.23%,6.59 µM,,
"CC(=O)O[C@H]1C(=O)[C@@]2(C)[C@H]([C@H](OC(=O)c3ccccc3)[C@]3(O)C[C@H](OC(=O)[C@H](O)[C@@H](NC(=O)c4ccccc4)c4ccccc4)C(C)=C1C3(C)C)[C@]1(OC(C)=O)CO[C@@H]1C[C@@H]2O [Paclitaxel, reference compound]",,,,,,,,,,,increase in Vmax [4]: threefold increase in Vmax
"CC(C)(C)c1ccc(Cn2cc(COc3cc4c(cc3Br)[C@H]3CC[C@@]5(C)C(=O)CC[C@H]5[C@@H]3CC4)nn2)cc1 [Compound 11b, 2-bromo-3-[{1–(4-tert-butylbenzyl)-1H-1,2,3-triazol-4-yl}methoxy]-13α-estra-1,3,5(10)-trien-17-one]",,,,,,,,,,,"inhibition at 10 µM [1, 5]: 30.2 ± 2.35%; inhibition at 30 µM [1, 6]: 33.9 ± 2.7%; inhibition at 10 µM [2, 7]: 24.4 ± 2.2%; inhibition at 30 µM [2, 8]: 23.9 ± 1.07%; inhibition at 10 µM [3, 9]: < 20%; inhibition at 30 µM [3, 10]: < 20%"
"C[C@@]12CC[C@@H]3c4cc(P(=O)(c5ccccc5)c5ccccc5)c(OCc5cn(Cc6ccccc6)nn5)cc4CC[C@H]3[C@@H]1CCC2=O [Compound 14a, (3-[{1-benzyl-1H-1,2,3-triazol-4-yl}methoxy]-13α-estra-1,3,5(10)-trien-17-on-2-yl)diphenylphosphine oxide]",96 ± 1.28%,98.06 ± 0.89%,4.87 µM,82 ± 2.49%,98.52 ± 0.1%,7.13 µM,66.9 ± 1.46%,92.5 ± 1.08%,8.38 µM,117 to 120 °C,
"N.N.[Cl][Pt][Cl] [Cisplatin, reference compound]",,,,,,,,,,,"Inhibition (%) ± SEM ([1]; A2780, 10 µM, 72 h, MTT): 83.57 ± 1.21%; Inhibition (%) ± SEM ([1]; A2780, 30 µM, 72 h, MTT): 95.02 ± 0.28%; IC50 ([1]; A2780, 72 h, MTT): 1.3 µM; Inhibition (%) ± SEM ([2]; MDA-MB-231, 10 µM, 72 h, MTT): 67.51 ± 1.01%; Inhibition (%) ± SEM ([2]; MDA-MB-231, 30 µM, 72 h, MTT): 87.75 ± 1.10%; IC50 ([2]; MDA-MB-231, 72 h, MTT): 3.7 µM; Inhibition (%) ± SEM ([3]; MCF-7, 10 µM, 72 h, MTT): 53.03 ± 2.29%; Inhibition (%) ± SEM ([3]; MCF-7, 30 µM, 72 h, MTT): 86.90 ± 1.24%; IC50 ([3]; MCF-7, 72 h, MTT): 5.78 µM"
"C[C@@]12CC[C@@H]3c4cc(Br)c(OCc5cn(Cc6ccccc6)nn5)cc4CC[C@H]3[C@@H]1CCC2=O [Compound 11a, 3-[{1-benzyl-1H-1,2,3-triazol-4-yl}methoxy]-2-bromo-13α-estra-1,3,5(10)-trien-17-one]",,,,,,,,,,,"inhibition at 10 µM [1, 5]: 44.87 ± 0.09%; inhibition at 30 µM [1, 6]: 52 ± 0.8%; IC50 ([1]; Homo sapiens, A2780, 72 h, MTT): 21.5 µM; inhibition at 10 µM [2, 7]: 47.5 ± 1.21%; inhibition at 30 µM [2, 8]: 38.2 ± 2.78%; inhibition at 10 µM [3, 9]: 29.1 ± 1.42%; inhibition at 30 µM [3, 10]: 36.5 ± 1.22%"
"CCOP(=O)(OCC)c1cc2c(cc1OCc1cn(Cc3ccccc3)nn1)CC[C@@H]1[C@@H]2CC[C@@]2(C)C(=O)CC[C@@H]12 [Compound 13a, (3-[{1-benzyl-1H-1,2,3-triazol-4-yl}methoxy]-13α-estra-1,3,5(10)-trien-17-on-2-yl)-diethylphosphonate]",29.5 ± 1.86%,90.85 ± 0.4%,13.5 µM,< 20%,36 ± 3.17%,,< 20%,43.5 ± 2.63%,,75 to 80 °C,
